As a reminder, the IC50 is the concentration that gives 50% inhibition. Read a low IC50 as inhibition by little substance.

From US10059733B2 (NUCORION PHARMACEUTICALS, INC., priority 2014, dated 2018) come the findings set out here.

Data set [1] is described as follows: TC50 assay in Huh7 cells, 48 h (CellTiter 96). The note with it: human. As for the experimental part: (§1) Huh7 cells were maintained at 37° C. in a humidified atmosphere at 5% CO2 in DMEM containing 10% FBS. […] The cells were then treated with each compound at concentrations ranging from 500 μM to 0 μM in triplicate in DMEM media containing 2% FBS and 0.5% DMSO and without phenol red. After 48 h of treatment at 37° C., the relative number of living cells in each well was determined by using the CellTiter 96 system (Promega) according to the manufacturer's instructions. The 3-(4,5-dimethylthiazol-2-yl)-5-(3-carboxymethoxyphenyl)-2-(4-sulfophenyl)-2H-tetrazolium (MTS) and phenazine methosulfate (PMS) reagents were added to each well of the 96-well plate and the plate was incubated at 37° C. for approximately 2 h. The absorbance at 490 nm and 650 nm in each well was then determined by using a Flexstation 3 microplate reader ([…]). The absorbance determined at 650 nm was then subtracted from the absorbance determined at 490 nm to correct for light scattering. The corrected absorbance values representing the relative number of live cells in each condition were then plotted as a function of compound concentration, and the data were then fit to the following sigmoidal Emax equation by using Kaleidagraph: y=(Emax*x^Slope)/(TC50^Slope+x^Slope) where y is the relative corrected absorbance value, Emax is the maximum relative inhibition, x is the compound concentration, TC50 is the concentration of the compound at which the total cell population is reduced by 50%, and Slope is the slope of the curve.
The data in Table 1 were determined for cells exposed to drug for 48 h. The IC50 is the concentration of each compound necessary to inhibit the replication of the HCV luciferase replicon to 50%. “TC50,” refers to toxic concentration necessary to reduce the cell population by 50%. All compounds were purified by HPLC.

For data set [2], the system named is PK9 cells. Kind of data set: Cell transport: cytotoxicity in PK9 cells with or without ENT1 inhibitor NBTI. To be noted: Homo sapiens, PK9, 48 h. As for the experimental part:
as §1
(§2) To this end, Huh7 cells or PK9 cells were seeded in 96-well plates at a density of 5,000 cells/well or 2,500 cells/well, respectively, and the plates were incubated at 37° C. for 24 h to allow for cell attachment. The media was then removed from the plates and replaced with media containing 2% FBS, 0.5% DMSO and 10 μM NBTI. […] Subsequently, the cells were treated with each compound at final concentrations ranging from 500 μM to 0 μM in triplicate in media containing 2% FBS, 0.5% DMSO and 10 μM NBTI. […] The TC50 values of each compound in the presence or absence of the ENT1 inhibitor were then compared.

In data set [3] the test system is genotype 1b HCV. Kind of data set: Oral administration to HCV-infected chimpanzee, viral load (genotype 1b). It is filed as in vivo. The note with it: Chimpanzee I. As for the experimental part: (§3) Via oral gavage, two HCV-infected chimpanzees I (male, 56.49 kg and 11 years old; genotype 1b HCV) and II (male, 61.91 kg and 34 years old; genotype 1a HCV) each received a single dosage of 200 mg of Compound 1 in Formulation I while the HCV-infected chimpanzee III (male, 56.19 kg and 18 years old; genotype 1a HCV) was administered a single dosage of 260 mg of the non-phosphorylated analog of Compound 1 (Table 1) in Formulation I. After 12 hours, the HCV viral titer decreased from 24,100 to 10,200 IU/ml (or 58% drop) in Chimpanzee I, from 38,500 to 27,000 IU/ml (or 30% drop) in Chimpanzee II, and from 154,000 to 142,000 IU/ml (or 8% drop) in Chimpanzee III. […] All animals were fasted overnight prior to dosing and a minimum of 2 hours prior to scheduled blood sample collections. Viral load determinations were performed on plasma samples using the HCV TaqMan assay (COBAS® AmpliPrep/COBAS® TaqMan® HCV Test, Version 2, Test Code 1220) for quantitative analysis. […] There were no adverse effects, illness, nor distress seen with the three chimpanzees during the study requiring veterinarian intervention.

Data set [4] is described as follows: Tolerability of single oral dosage in HCV-infected chimpanzees. It is filed as in vivo, chimpanzee. To be noted: single oral dosage 200 mg. The procedure: as §3
Data set [5] relates to HCV luciferase replicon. Kind of data set: IC50 assay: inhibition of the HCV luciferase replicon in Huh7 cells. Format: cell-based. The procedure: After 48 h of treatment at 37° C., the media in each well was removed, the cells were gently washed once with phosphate buffered saline (PBS) and subsequently lysed by the addition of Glo Lysis Buffer (Promega). After a 15 min incubation at room temperature to allow for complete cell lysis, Bright-Glo luciferase reagent (Promega) was added to each well and the relative luciferase activity in each well was determined by using a Glowmax 96 microplate luminometer (Promega).
IC50 values determined using the above methods for inhibition of the HCV luciferase replicon in Huh7 cells are set forth in Table 1.
All compounds were purified by HPLC.

The test system of data set [6] is Huh7 cells. Nature of the data set: Cell transport: cytotoxicity in Huh7 cells with or without ENT1 inhibitor NBTI. To be noted: for CC50: Homo sapiens, Huh-7, 48 h. The procedure:
as §1, §2

Data set [7] concerns HEPG2. Nature of the data set: TC50 assay with human cancer cell lines, 96 h: HEPG2. Format: cell-based. The note with it: HepG2, 96 h, read-out: TC50 HEPG2 (μM).
Description: Huh7 cells were maintained at 37° C. in a humidified atmosphere at 5% CO2 in DMEM containing 10% FBS. […] The cells were then treated with each compound at concentrations ranging from 500 μM to 0 μM in triplicate in DMEM media containing 2% FBS and 0.5% DMSO and without phenol red. After 48 h of treatment at 37° C., the relative number of living cells in each well was determined by using the CellTiter 96 system (Promega) according to the manufacturer's instructions. The 3-(4,5-dimethylthiazol-2-yl)-5-(3-carboxymethoxyphenyl)-2-(4-sulfophenyl)-2H-tetrazolium (MTS) and phenazine methosulfate (PMS) reagents were added to each well of the 96-well plate and the plate was incubated at 37° C. for approximately 2 h. The absorbance at 490 nm and 650 nm in each well was then determined by using a Flexstation 3 microplate reader (Molecular Dynamics). The absorbance determined at 650 nm was then subtracted from the absorbance determined at 490 nm to correct for light scattering. The corrected absorbance values representing the relative number of live cells in each condition were then plotted as a function of compound concentration, and the data were then fit to the following sigmoidal Emax equation by using Kaleidagraph: y=(Emax*x^Slope)/(TC50^Slope+x^Slope) where y is the relative corrected absorbance value, Emax is the maximum relative inhibition, x is the compound concentration, TC50 is the concentration of the compound at which the total cell population is reduced by 50%, and Slope is the slope of the curve.
Huh7, HEPG2, HEK293, MCF-7 and BxPC3 cell lines were maintained at 37° C. in a humidified atmosphere at 5% CO2 in DMEM containing 10% FBS. […] The cells were then treated with each compound at concentrations ranging from 500 μM to 0 μM in triplicate in DMEM media containing 2% FBS and 0.5% DMSO and without phenol red.
The test system of data set [8] is RPK9 cells. Kind of data set: TC50 assay in gemcitabine resistant (dCK deficient) RPK9 cells, 48 h. The note with it: read-out: TC50 (μM) in RPK9 cells at 48 hr. The procedure:
as §1
PK9 and RPK9 cells were maintained at 37° C. in a humidified atmosphere at 5% CO2 in Roswell Park Memorial Institute (RPMI) media containing 10% FBS. […] The cells were then treated with each compound at concentrations ranging from […] to 0 μM in triplicate in RPMI media containing 2% FBS and 0.5% DMSO and without phenol red. […] The RPK9 cells were derived from the parental PK9 cell line, and are deficient for dCK activity due to the partial deletion of the dCK gene.

Molecules are shown by their SMILES. Where two headings read alike, the source gives them in different places.

Consider `CCCC(CCC)C(=O)Nc1ccn([C@@H]2O[C@H](CO[P@@](=O)(N[C@@H](C)C(=O)OC(C)C)Oc3ccccc3)[C@@H](O)C2(F)F)c(=O)n1` [Compound 1, (S)-isopropyl 2-(((S)-(((2R,3R,5R)-4,4-difluoro-3-hydroxy-5-(2-oxo-4-(2-propylpentanamido)pyrimidin-1(2H)-yl)tetrahydrofuran-2-yl)methoxy)(phenoxy)phosphoryl)amino)propanoate], for which, in data set [1], the CC50 at 48 h came out at 17.4 ± 3.4 µM. The CC50 in data set [2] (read-out: TC50 (μM) in PK9 cells at 48 h With NBTI) was determined as 16.9 µM; in data set [2] (read-out: TC50 (μM) in PK9 cells at 48 h Without NBTI) it was 25.2 µM; in data set [6] (read-out: TC50 (μM) in Huh7 cells at 48 h With NBTI), 16.4 µM; in data set [6] (read-out: TC50 (μM) in Huh7 cells at 48 h Without NBTI) it was 17.4 µM; in data set [7] it was 1.31 ± 0.21 µM; in data set [8], 24.2 ± 6.4 µM. Also, the “drop of HCV viral titer after 12 hours” value in data set [3] (single oral dosage 200 mg) worked out at 58%. Besides, the “HCV viral titer after 12 hours” value in data set [3] (single oral dosage 200 mg in Formulation I, titer before 24,100 IU/ml) was 10,200 IU/ml. In addition, in data set [4], the tolerability result is on record as “well tolerated”. Further, half-maximal inhibition in data set [5] (Hepatitis C virus, Huh-7, 48 h) (IC50) required 0.0884 ± 0.0133 µM. Further, the “Therapeutic Index (TC50/IC50)” value in data set [5] (TC50 in Huh7 / IC50 HCV replicon, 48 h) was 198. Also, in data set [6] (conclusion from TC50 with/without 10 μM NBTI in Huh7 and PK9 cells), the “requirement of the ENT1 transporter for cell entry” value was “do not require the ENT1 transporter for cell entry”.
